The results in this text go back to US20100239556A1, “PROMOTING ECM PRODUCTION BY FIBROBLAST CELLS AND/OR PROMOTING MIGRATION OF FIBROBLAST CELLS IN A BIOLOGICAL SYSTEM” (TGR BioScience Pty Ltd., priority 2006, published 2010).

Common to all, as to type: cell-based, human
One assay has as its system adult fibroblast cells. Description: ECM production within INTEGRA scaffold (collagen I immunohistochemistry). The source says:
INTEGRA® was cut into lcm x lcm pieces using a sterile scalpel, the pieces transferred to a petri dish using sterile forceps and washed four times each with PBS followed by serum-free DMEM, to remove the alcohol storage medium and to equilibrate the porous scaffold for exposure to cells. After the last wash, the INTEGRA® pieces were transferred to the wells of a 12 well tissue culture plate (collagen layer facing up) immersed in media containing proteins having peroxidase activity. This “pre-treatment” of the INTEGRA® with proteins having peroxidase activity was performed for up to 16 hours at 37° C. in a CO2 incubator. After the “pre-incubation” period, the media was replaced with fresh DMEM supplemented with 10% FBS (ie normal growth media as the control) containing 5×10^5 human fibroblast cells plus or minus proteins having peroxidase activity. After allowing 24 hours for the fibroblast cells to attach to the collagen matrix of the INTEGRA® scaffold, the INTEGRA® pieces were transferred to fresh 12 well plates to ensure any cells not attached to the matrix surface were removed. Fresh media containing proteins with peroxidase activity were added to the wells and the INTEGRA® pieces incubated for up to 14 days (“post-treatment” period) with the media changed every 7 days as necessary. At the end of the experiment the INTEGRA® pieces were harvested and fixed in 10% buffered formaldehyde before they were processed, embedded in paraffin wax, cut in cross-section and placed onto microscope slides for histological and immunohistochemical analysis.
To confirm proteins having peroxidase activity promote the generation of a three-dimensional human tissue by stimulating the production of collagen and other ECM components to fill the interstices of a three-dimensional framework or scaffold, INTEGRA® pieces collected from the experiments described in Example 3 were analysed for the production of Collagen I (as a representative ECM protein) using immunohistochemistry. […]

Assay [1] concerns primary-adult fibroblast cells. Description: Fibroblast infiltration into INTEGRA scaffold (SMA immunohistochemistry). From the text: INTEGRA® was cut into lcm x lcm pieces using a sterile scalpel, the pieces transferred to a petri dish using sterile forceps and washed four times each with PBS followed by serum-free DMEM, to remove the alcohol storage medium and to equilibrate the porous scaffold for exposure to cells. After the last wash, the INTEGRA® pieces were transferred to the wells of a 12 well tissue culture plate (collagen layer facing up) immersed in media containing proteins having peroxidase activity. This “pre-treatment” of the INTEGRA® with proteins having peroxidase activity was performed for up to 16 hours at 37° C. in a CO2 incubator. After the “pre-incubation” period, the media was replaced with fresh DMEM supplemented with 10% FBS (ie normal growth media as the control) containing 5×10^5 human fibroblast cells plus or minus proteins having peroxidase activity. After allowing 24 hours for the fibroblast cells to attach to the collagen matrix of the INTEGRA® scaffold, the INTEGRA® pieces were transferred to fresh 12 well plates to ensure any cells not attached to the matrix surface were removed. Fresh media containing proteins with peroxidase activity were added to the wells and the INTEGRA® pieces incubated for up to 14 days (“post-treatment” period) with the media changed every 7 days as necessary. […]

For another assay, the system named is HFF cells. Description: Collagen I in PuraMatrix Peptide Hydrogel (western blot). The note with it: one week. On the procedure: Additional experiments were also performed to ensure the effects observed using the INTEGRA® as a three-dimensional framework or scaffold were not limited to a bovine collagen/glycosaminoglycan structure and could be achieved in synthetically derived matrices. For these experiments a PuraMatrix™ Peptide Hydrogel was used. The PuraMatrix Peptide Hydrogel is a synthetic matrix that self assembles into a three-dimensional hydrogel (1% w/v amino acids: 99% water) under physiological conditions with a nanometer scale fibrous structure and an average pore size of 50-200 nm. For these experiments, HFF cells were suspended in a 20% sucrose solution, with or without proteins having peroxidase activity, and added 1:1 to neat (1%) PuraMatrix hydrogel and carefully pipette mixed, so as not to create bubbles. Each cell/gel mix was plated in 24 well plates and allowed to partially set at room temperature for 5 min. Next, DMEM supplemented with either 10, 5 or 2% FCS was very slowly overlayed in a dropwise fashion down the edge of the well so as not to disrupt the gel. Plates were placed in a 37° C. incubator for the mix to completely solidify, and the media was changed twice over 1 hr to equilibrate the gel to pH 7.4. The encapsulated hydrogel was incubated for one week, the bathing culture media removed and RIPA buffer added to the gel for total protein extraction. […]

Assay [2] has as its system adult primary fibroblast cells and HFF cells. Description: Organisation of collagen fibers on coverslips (collagen I immunohistochemistry). The note with it: treated up to 7 days. The protocol:
ECM, rather than disorganized ECM which would increase the risk of scar formation within the dermis and contribute to the generation of structurally and functionally impaired replacement tissue, additional experiments were performed to visualize the collagen fibers formed by fibroblast cells stimulated with proteins having peroxidase activity. These experiments involved growing adult primary fibroblast cells and HFF cells on microscope slide coverslips placed into each well of six well tissue culture plates. Each well containing a coverslip was seeded with 1.5×10^5 cells and after one week of culture, the cells were treated with a range of proteins having peroxidase activity for up to 7 days. At the end of the experiment, the cell media was removed and the cells and cell-associated ECM fixed by the addition of 10% formalin. The coverslips were removed from the tissue culture plate and stained immunohistochemically for collagen I using the method outlined in Example 3 for the SMA immunohistochemistry with the variation that 5 μg/ml rabbit anti Collagen-I (Rocklands Immunochemicals) was used as the primary antibody.

Setting [3] is: 25 μg/ml before and after addition of cells, 7 days, versus 7 and 14 day controls.

For the molecule soy bean peroxidase [SBP], the “cell-associated ECM within the interstices of the scaffold” value with adult fibroblast cells (setting [3]) is “much more cell-associated ECM was evident”. Besides, in assay [1] (setting [3]), the “cells within the interstices of the INTEGRA scaffold” value is on record as “many more cells were evident within the interstices of the scaffold”. In addition, the figures for the “collagen I produced in the Hydrogel matrix” value with HFF cells (SBP 25 μg/ml in 10% FCS versus 10% FCS alone) and in the assay with HFF cells (SBP in 2 or 5% FCS) were “produced more collagen I” and “relatively more collagen I was produced”, respectively.

Turning to microperoxidase [MP], in assay [2], the “collagen fibers in the cell-associated ECM” value was “collagen was not the major ECM protein deposited”.

B1: horse radish peroxidase (protein, UniProt P00433 31-338, looked up)
Peroxidase C1A: QLTPTFYDNSCPNVSNIVRDTIVNELRSDPRIAASILRLHFHDCFVNGCDASILLDNTTSFRTEKDAFGNANSARGFPVIDRMKAAVESACPRTVSCADLLTIAAQQSVTLAGGPSWRVPLGRRDSLQAFLDLANANLPAPFFTLPQLKDSFRNVGLNRSSDLVALSGGHTFGKNQCRFIMDRLYNFSNTGLPDPTLNTTYLQTLRGLCPLNGNLSALVDFDLRTPTIFDNKYYVNLEEQKGLIQSDQELFSSPNATDTIPLVRSFANSTQTFFNAFVEAMDRMGNITPLTGTQGQIRLNCRVVNSNS
Consider B1, for which the “ECM production and integration” value in the assay on adult fibroblast cells (25 μg/ml, 14 days, versus 14 days standard conditions) is “much greater ECM production and integration”. For the same molecule, in assay [1] (25 μg/ml, 14 days of treatment), the “cells within the INTEGRA scaffold” value was “even greater number of cells evident within the scaffold”. Besides, the “collagen fibers in the cell-associated ECM” value in assay [2] was “strongly stained, parallel collagen fibers”.
